Source: paper PMC3661498 (Ophthalmology and Eye Diseases, 2010)
Read-outs that look alike come from different tables or passages of the source.

Tests used:
[1] = test system: HSV-1; settings: read-out: EC50 HSV-1; cited from earlier work
[2] = test system: [^3H] alanine uptake by rPCEC; assay: Uptake of [3H] alanine by rPCEC in presence of prodrugs, kinetics and affinity; type: cell-based, rabbit
[3] = test system: isolated rabbit cornea; assay: Transport of drug/prodrugs across freshly excised rabbit cornea; type: in vitro ADME; settings: in presence of 5 mM glutamic acid
[4] = test system: [^3H] phenylalanine uptake by rPCEC; assay: Uptake of [3H] phenylalanine by rPCEC in presence of prodrugs; type: cell-based, rabbit; settings: 5 mM test substance
[5] = test system: HSV-2; assay: In vitro antiviral testing, CPE inhibition, HSV-2; type: cell-based; settings: Human alphaherpesvirus 2, read-out: EC50 HSV-2 CPE inhibition
[6] = Transport of drug/prodrugs across freshly excised rabbit cornea; type: in vitro ADME; settings: New Zealand albino, rabbit, pH 7.4
[7] = test system: HSV-1; assay: In vitro antiviral testing, CPE inhibition, HSV-1; type: cell-based; settings: Human alphaherpesvirus 1, read-out: EC50 HSV-1 CPE inhibition
[8] = test system: [^3H] arginine uptake by rPCEC; assay: Uptake of [3H] arginine by rPCEC in presence of prodrugs; type: cell-based, rabbit; settings: 5 mM test substance

## CC(C)[C@H](N)C(=O)OCCOCn1cnc2c(=O)[nH]c(N)nc21 [VACV, valacyclovir]
[1]
  EC50: 9.1 µM

## C[C@H](N)C(=O)O [alanine, L-alanine]
[2]; 5 mM test substance
  Effect on [^3H] alanine uptake (in words): significantly inhibited
[2]; no inhibitor, listed as [^3H] alanine
  Vmax of alanine uptake: 0.84 μmoles·min^−1·mg protein^−1
[2]; read-out: Km of alanine uptake, no inhibitor
  Km: 710 µM

## O=C(O)CCC(=O)O [succinate]
[3]
  Effect on transcorneal flux (in words): did not cause any significant change

## N[C@@H](Cc1ccccc1)C(=O)O [phenylalanine]
[4]
  Effect on [^3H] phenylalanine uptake (in words): significantly inhibited

## Nc1nc2c(ncn2COCCO)c(=O)[nH]1 [ACV, acyclovir]
[5]
  EC50: 6.6 µM
[6]
  Papp at 3 h, 1 mM: 2.33 ± 0.73 ×10⁻⁶ cm/s
[7]
  EC50: 7.1 µM

## N=C(N)NCCC[C@H](N)C(=O)O [arginine, L-arginine]
[8]
  Effect on [^3H] arginine uptake (in words): significantly inhibited
